For assay [1], the system named is C4-2 human carcinoma xenografts; patient derived xenograft (PDX) TM00298 prostate tumors. In words: Repeat dose and enzalutamide combination efficacy in prostate tumor models. It is filed as in vivo, mice. As to conditions: enzalutamide as a single agent; prostate cancer cells.
Procedure: Anti-tumor efficacy of the anti-PSMA ADCs of the invention in combination with hormone therapy enzalutamide was tested in tumor xenograft model in mice engrafted with prostate cancer cell line. Metastatic castration resistant prostate cancer (mCRPC) relevant cell line, C4-2, was obtained from ATCC and expanded in vitro following ATCC instructions. C4-2 human carcinoma xenografts were grown in male immune-compromised mice with cells implanted subcutaneously. A second model using male immunocompromised mice bearing patient derived xenograft (PDX) TM00298 (Jackson Laboratories, CA) prostate tumors was also studied.
Mice were weighed and measured for tumor volume using an electronic caliper. Individual tumor volume was calculated as length×width×width/2. Mice with vascularized tumors (determined by appearance) averaging a volume of 500 mm^3 were randomized into treatment groups and were dosed intravenously per individual body weight. Anti-PSMA ADCs were administered intravenously at 0.5, 1, and 3 mg/kg weekly for 4 weeks in the C4-2 model and at 1 and 3 mg/kg weekly for 4 weeks in the PDX model. In both prostate models, enzalutamide was administered orally daily at 10 mg/kg, for 28 days. In both prostate models, one group of mice were administered a combination therapy of 1 mg/kg anti-PSMA ADC plus 10 mg/kg enzalutamide, FIGS. 7 and 8. […]
Assay [2] has as its system cell surface PSMA expression. As to conditions: in vitro; Murga et al. 2015; cited from earlier work.

As for `CNC(=O)c1ccc(N2C(=S)N(c3ccc(C#N)c(C(F)(F)F)c3)C(=O)C2(C)C)cc1F` [enzalutamide], the “level of cell surface PSMA” value in assay [1] was “increased the level of cell surface PSMA in prostate cancer cells”. Moreover, the “increase of cell surface PSMA expression” value in assay [2] was “approximately 3 fold”.

The values are drawn from patent publication US12059473B2, “Humanized anti-prostate -specific membrane antigen (PSMA) antibody drug conjugates” (Ambrx, Inc., priority 2018, dated 2024).
